Results as given in ChEMBL document CHEMBL5131429, “Synthesis and antifungal evaluation of phenol-derived bis(indolyl)methanes combined with FLC against Candida albicans” (Bioorg Med Chem Lett, 2022).
Converted amounts (≈) assume the structure as drawn. Blank lines part the entries; values can stand above or below the molecule they belong to. The source made the active and inactive calls. No cut-off for these calls is given here.

Assays:
[1] = system: Candida albicans; test: Antifungal activity against Candida albicans SC5314 by microdilution method; type: functional
[2] = system: Candida albicans; test: Antifungal activity against Candida albicans CA23 by microdilution method; type: functional
[3] = system: Candida albicans; test: Antifungal activity against Candida albicans SC5314 in presence of fluconazole by microdilution method; type: functional
[4] = system: Candida albicans; test: Antifungal activity against Candida albicans CA23 in presence of fluconazole by microdilution method; type: functional
[5] = system: Candida albicans; test: Antifungal activity against Candida albicans CA23 assessed as fractional inhibitory concentration index in presence of fluconazole by microdilution method; type: functional
[6] = system: Candida albicans; test: Antifungal activity against Candida albicans SC5314 assessed as fractional inhibitory concentration index in presence of fluconazole by microdilution method; type: functional
[7] = system: Candida albicans; test: Antifungal activity against Candida albicans ATCC14053 by microdilution method; type: functional
[8] = system: Candida albicans; test: Antifungal activity against Candida albicans CA187 by microdilution method; type: functional
[9] = system: Candida albicans; test: Antifungal activity against Candida albicans CA800 by microdilution method; type: functional
[10] = system: Candida albicans; test: Antifungal activity against Candida albicans CA3816 by microdilution method; type: functional
[11] = system: Candida albicans; test: Antifungal activity against Candida albicans CA3511 by microdilution method; type: functional
[12] = system: Candida albicans; test: Antifungal activity against Candida albicans CA5408 by microdilution method; type: functional
[13] = system: Candida albicans; test: Antifungal activity against Candida albicans CA558 by microdilution method; type: functional
[14] = system: Candida albicans; test: Antifungal activity against Candida albicans CA602 by microdilution method; type: functional
[15] = system: Candida albicans; test: Antifungal activity against Candida albicans ATCC14053 in presence of fluconazole by microdilution method; type: functional
[16] = system: Candida albicans; test: Antifungal activity against Candida albicans CA187 in presence of fluconazole by microdilution method; type: functional
[17] = system: Candida albicans; test: Antifungal activity against Candida albicans CA800 in presence of fluconazole by microdilution method; type: functional
[18] = system: Candida albicans; test: Antifungal activity against Candida albicans CA3816 in presence of fluconazole by microdilution method; type: functional
[19] = system: Candida albicans; test: Antifungal activity against Candida albicans CA3511 in presence of fluconazole by microdilution method; type: functional
[20] = system: Candida albicans; test: Antifungal activity against Candida albicans CA5408 in presence of fluconazole by microdilution method; type: functional
[21] = system: Candida albicans; test: Antifungal activity against Candida albicans CA558 in presence of fluconazole by microdilution method; type: functional
[22] = system: Candida albicans; test: Antifungal activity against Candida albicans CA602 in presence of fluconazole by microdilution method; type: functional
[23] = system: Candida albicans; test: Antifungal activity against Candida albicans ATCC14053 assessed as fractional inhibitory concentration index in presence of fluconazole by microdilution method; type: functional
[24] = system: Candida albicans; test: Antifungal activity against Candida albicans CA187 assessed as fractional inhibitory concentration index in presence of fluconazole by microdilution method; type: functional
[25] = system: Candida albicans; test: Antifungal activity against Candida albicans CA800 assessed as fractional inhibitory concentration index in presence of fluconazole by microdilution method; type: functional
[26] = system: Candida albicans; test: Antifungal activity against Candida albicans CA3816 assessed as fractional inhibitory concentration index in presence of fluconazole by microdilution method; type: functional
[27] = system: Candida albicans; test: Antifungal activity against Candida albicans CA3511 assessed as fractional inhibitory concentration index in presence of fluconazole by microdilution method; type: functional
[28] = system: Candida albicans; test: Antifungal activity against Candida albicans CA5408 assessed as fractional inhibitory concentration index in presence of fluconazole by microdilution method; type: functional
[29] = system: Candida albicans; test: Antifungal activity against Candida albicans CA558 assessed as fractional inhibitory concentration index in presence of fluconazole by microdilution method; type: functional
[30] = system: Candida albicans; test: Antifungal activity against Candida albicans CA602 assessed as fractional inhibitory concentration index in presence of fluconazole by microdilution method; type: functional
[31] = system: Candida albicans; test: Antifungal activity against Candida albicans at 2 ug/mL in presence of 1 ug/mL fluconazole by Time-kill curve assay; type: functional, organism-based; conditions: dose 2.0 µg/ml
[32] = system: Candida albicans; test: Antifungal activity against Candida albicans ATCC14053 assessed as decrease in number of hyphae at 2 ug/mL in presence of 1 ug/mL fluconazole by microscopic analysis; type: functional, organism-based; conditions: dose 2.0 µg/ml
[33] = system: Candida albicans; test: Antifungal activity against Candida albicans ATCC14053 assessed as shortened length of hyphae at 2 ug/mL in presence of 1 ug/mL fluconazole by microscopic analysis; type: functional, organism-based; conditions: dose 2.0 µg/ml
[34] = system: Candida albicans; test: Induction of ROS production in Candida albicans at 2 ug/ml in presence of 1 ug/mL fluconazole by DCFH-DA assay; type: functional; conditions: dose 2.0 µg/ml
[35] = system: Candida albicans; test: Induction of mitochondrial membrane potential loss in Candida albicans at 2 ug/ml after 16 hrs in presence of 1 ug/mL fluconazole by JC-1 staining based fluorescence microplate reader; type: functional, organism-based; conditions: dose 2.0 µg/ml
[36] = system: Candida albicans; test: Induction of mitochondrial membrane potential loss in Candida albicans at 2 ug/ml after 16 hrs by JC-1 staining based fluorescence microplate reader; type: functional, organism-based; conditions: dose 2.0 µg/ml
[37] = system: Candida albicans; test: Effect on cell membrane permeability ib Candida albicans assessed as cell membrane damage at 2 ug/ml measured after 8 to 24 hrs in presence of 1 ug/mL fluconazole by PI staining based fluorescence analysis; type: functional; conditions: dose 2.0 µg/ml, time 8-24 hrs
[38] = Cytotoxicity against PBMC (unknown origin) by MTT assay; type: toxicity, cell-based
[39] = Cytotoxicity against human 16HBE by MTS assay; type: toxicity, cell-based; conditions: 16HBE14o- cells

SMILES: O=[N+]([O-])c1ccc(O)c(C(c2c[nH]c3ccccc23)c2c[nH]c3ccccc23)c1
- MIC80 [1]: 0.69 µg/mL (≈ 1.8 µM)
- MIC80 [2]: 180 µg/mL (≈ 471 µM)
- MIC80 [3]: 25.6 µg/mL
- MIC80 [4]: 29.3 µg/mL
- fractional inhibitory concentration index (FICI) [5]: 0.18

SMILES: CN(C)c1ccc(C(c2c[nH]c3ccccc23)c2c[nH]c3ccccc23)c(O)c1
- MIC80 [1]: 0.37 µg/mL (≈ 0.97 µM)
- MIC80 [2]: 24 µg/mL (≈ 62.8 µM)
- MIC80 [3]: 0.94 µg/mL
- MIC80 [4]: 5.76 µg/mL
- fractional inhibitory concentration index (FICI) [6]: 2.57
- fractional inhibitory concentration index (FICI) [5]: 0.24

SMILES: Oc1c(Cl)cc(Br)cc1C(c1c[nH]c2ccccc12)c1c[nH]c2ccccc12
- MIC80 [1]: > 200 µg/mL
- MIC80 [2]: 18.3 µg/mL (≈ 40.6 µM)
- MIC80 [3]: 0.9 µg/mL
- MIC80 [4]: 6.59 µg/mL
- fractional inhibitory concentration index (FICI) [6]: 0.04
- fractional inhibitory concentration index (FICI) [5]: 0.36

SMILES: Oc1ccc(F)cc1C(c1c[nH]c2ccccc12)c1c[nH]c2ccccc12
- MIC80 [1]: > 200 µg/mL
- MIC80 [2]: > 200 µg/mL
- MIC80 [3]: 0.98 µg/mL
- MIC80 [4]: 5.92 µg/mL
- fractional inhibitory concentration index (FICI) [6]: 0.04
- fractional inhibitory concentration index (FICI) [5]: 0.02

SMILES: Cc1ccc(C(c2c[nH]c3ccccc23)c2c[nH]c3ccccc23)c(O)c1
- MIC80 [1]: > 200 µg/mL
- MIC80 [2]: 37 µg/mL (≈ 105 µM)
- MIC80 [3]: 3.67 µg/mL
- MIC80 [4]: 5.75 µg/mL
- fractional inhibitory concentration index (FICI) [6]: 0.14
- fractional inhibitory concentration index (FICI) [5]: 0.02

SMILES: Oc1c(Br)cccc1C(c1c[nH]c2ccccc12)c1c[nH]c2ccccc12
- MIC80 [1]: > 200 µg/mL
- MIC80 [2]: > 200 µg/mL
- MIC80 [3]: 1.22 µg/mL
- MIC80 [4]: 5.82 µg/mL
- fractional inhibitory concentration index (FICI) [6]: 0.04
- fractional inhibitory concentration index (FICI) [5]: 0.02
- MIC80 [7]: > 200 µg/mL
- MIC80 [8]: > 200 µg/mL
- MIC80 [9]: > 200 µg/mL
- MIC80 [10]: > 200 µg/mL
- MIC80 [11]: > 200 µg/mL
- MIC80 [12]: > 200 µg/mL
- MIC80 [13]: > 200 µg/mL
- MIC80 [14]: > 200 µg/mL
- MIC80 [15]: 1.37 µg/mL
- MIC80 [16]: 4.5 µg/mL
- MIC80 [17]: 2.63 µg/mL
- MIC80 [18]: 1.38 µg/mL
- MIC80 [19]: 5.96 µg/mL
- MIC80 [20]: 1.33 µg/mL
- MIC80 [21]: 5.61 µg/mL
- MIC80 [22]: 5.69 µg/mL
- fractional inhibitory concentration index (FICI) [23]: 0.01
- fractional inhibitory concentration index (FICI) [24]: 0.02
- fractional inhibitory concentration index (FICI) [25]: 0.01
- fractional inhibitory concentration index (FICI) [26]: 0.01
- fractional inhibitory concentration index (FICI) [27]: 0.03
- fractional inhibitory concentration index (FICI) [28]: 0.01
- fractional inhibitory concentration index (FICI) [29]: 0.03
- fractional inhibitory concentration index (FICI) [30]: 0.03
- Activity [31]: Active
- Activity [32]: Active
- Activity [33]: Active
- Activity [34]: Active
- Activity [35]: Active
- Activity [36]: Active
- Activity [37]: Active
- CC50 [38]: 32.7 µg/mL (≈ 78.5 µM)
- CC50 [39]: 35.6 µg/mL (≈ 85.3 µM)

Now from value to molecule, other results behind:

- MIC80 [1]: > 200 µg/mL
- MIC80 [2]: > 200 µg/mL
- MIC80 [3]: 3.22 µg/mL
- MIC80 [4]: 6.07 µg/mL
SMILES: Oc1ccccc1C(c1c[nH]c2ccccc12)c1c[nH]c2ccccc12
- fractional inhibitory concentration index (FICI) [6]: 0.12
- fractional inhibitory concentration index (FICI) [5]: 0.03

- MIC80 [1]: > 200 µg/mL
- MIC80 [2]: > 200 µg/mL
- MIC80 [3]: 1.31 µg/mL
- MIC80 [4]: 5.82 µg/mL
SMILES: Oc1c(Cl)cccc1C(c1c[nH]c2ccccc12)c1c[nH]c2ccccc12
- fractional inhibitory concentration index (FICI) [6]: 0.05
- fractional inhibitory concentration index (FICI) [5]: 0.02

- MIC80 [1]: 32.1 µg/mL (≈ 90.5 µM)
- MIC80 [2]: 5.91 µg/mL (≈ 16.7 µM)
- MIC80 [3]: 1.05 µg/mL
- MIC80 [4]: 5.7 µg/mL
SMILES: Oc1ccc(O)c(C(c2c[nH]c3ccccc23)c2c[nH]c3ccccc23)c1
- fractional inhibitory concentration index (FICI) [6]: 0.07
- fractional inhibitory concentration index (FICI) [5]: 0.98
